From paper PMC9794608 (Frontiers in Veterinary Science, 2022)

Key:
laboratory beagle dogs [1] = test: Sapanisertib escalating oral dose tolerability assessment; type: in vivo
Experimental: Determining a 0.1 mg/kg sapanisertib dosage for repeat dose studies was based upon extrapolation of previous studies in mice ([13], [20]), leading to initial evaluation of escalating individual oral doses of 0.1, 0.5, 0.65, and 0.8 mg/kg in one male (M), and one female (F) dog with a ≥3-day washout period between doses.
The initial efforts with sapanisertib focused on dose selection for ultimate testing in combination with orally administered trametinib dimethyl sulfoxide (trametinib) in nontumor-bearing laboratory beagle dogs. […] Sapanisertib dose escalation consisted of increased individual doses beginning with 0.10 mg/kg sapanisertib followed by a washout period of at least 3 days, and up to 7 days, between doses (Figure 2). Dogs lost body weight when dosed with ≥0.5 mg/kg sapanisertib. By day 23, the male dog had lost approximately 19% of initial body weight, while the female dog lost 7% body weight, and sapanisertib exposure was discontinued (Figure 2A). There was a trend toward recovery of modest amounts of body weight in these two dogs with the passage of sufficient time, post dose.
Figure 2 Sapanisertib escalating oral dose tolerability assessment in dogs. […] (A) Body weight (b.w.) changes with respect to time of first dose, in response to dosing as indicated. (B) Sapanisertib impact on select clinical pathology parameters for the testing days shown on x axis. Values on the y axis represent pre-treatment samples (0 days). Yellow-shaded area indicates reference range of values for normal healthy beagle dogs (Charles River Labs). Serum enzymes: ALT, alanine aminotransferase; AST, aspartate aminotransferase; ALP, alkaline phosphatase.

laboratory beagle dogs [2] = test: Repeat dose tolerability: clinical observations, hematology, serum chemistry, coagulation, urinalysis; type: in vivo
Experimental: Laboratory Beagle dogs (Charles River Labs, Mattawan, MI) served as surrogates in testing compounds proposed for application in canine clinical cancer care. The animals were at least six months old and weighed 6.4–8.8 kg at the initiation of study. They had routine veterinary care and had not been used in any previous studies. The study was conducted in AAALAC-accredited animal facilities [Charles River Laboratories, Inc., Mattawan, MI; NIH Office of Laboratory Animal Welfare Assurance approval (https://olaw.nih.gov/assured/app/index.html)], under review, monitoring, and approval of the facility's Institutional Animal Care and Use Committee according to U.S. Public Health Service national guidelines and regulations for the care and use of laboratory animals. The study was not designed to incorporate Good Laboratory Practices (GLP) regulatory criteria. Animals on study were monitored daily or more frequently and body weights were recorded, while periodic specimens were obtained for laboratory analyses. Clinical pathology analyses were included for hematology, serum chemistry, coagulation, urinalysis, and chemical bioanalysis was accomplished for pharmacokinetics (PK) (Table 1, repeat dose study) (Charles River Laboratories, Mattawan, MI).
Six male and six female beagle dogs were enrolled in a parallel, three-arm, fixed, repeat oral-dose study. […] All dogs were dosed on study day 1 to obtain single dose PK samples, and then dosed serially days 4–20. Dogs were fasted overnight prior to dosing and fed ad libitum 2 h (hrs) following dose administration.
On days 10 and 15, a 2-h post-dose sample was collected. […] Treatment schedule and clinical pathology specimen sampling intervals are outlined in Table 1. […]
Sampling for hematology, serum chemistry, coagulation and urinalysis was conducted to facilitate monitoring treatment effects over various time points, and values obtained were compared to pre-treatment measurements for each subject (Table 1).

[3] = by day 23, escalating oral doses 0.1, 0.5, 0.65, 0.8 mg/kg
[4] = ≥ 0.5 mg/kg, both sexes, as low as

For `CC(C)n1nc(-c2ccc3oc(N)nc3c2)c2c(N)ncnc21` [Sapanisertib], the “Serum chloride, times the pre-study value” (laboratory beagle dogs [1]; 0.8 mg/kg, male) was 0.89 x, the “Serum sodium, times the pre-study value” (laboratory beagle dogs [1]; 0.8 mg/kg, male) was 0.98 x and the “Loss of body weight, female dog” value (laboratory beagle dogs [1]; [3]) was 7%. The “Loss of initial body weight, male dog” value (laboratory beagle dogs [1]; [3]) was “approximately 19%”, the “Dose at which dogs lost body weight” value (laboratory beagle dogs [1]; individual oral doses, 1 male and 1 female) was no less than 0.5 mg/kg and the “Red blood cell reticulocyte counts” value (laboratory beagle dogs [1]; ≥ 0.5 mg/kg, both sexes) was “moderate to marked decreases”. For the same compound, the Serum cholesterol concentrations (laboratory beagle dogs [1]; ≥ 0.5 mg/kg, both sexes) was “minimal to mild increases”, the “Alanine aminotransferase (ALT), times the pre-study value” (laboratory beagle dogs [1]; [4]) was no less than 0.41 x and the “Aspartate aminotransferase (AST), times the pre-study value” (laboratory beagle dogs [1]; [4]) was no less than 0.68 x. For the same compound, the “Serum alkaline phosphatase (ALP), times the pre-study value” (laboratory beagle dogs [1]; [4]) was no less than 0.36 x, the “Serum ALT, times pre-study” value (laboratory beagle dogs [2]; Day 20, one female dog (23502), considered unlikely to be inhibitor related) was 2.10 x and the “Dogs with minimal to marked increases in urine protein concentration” value (laboratory beagle dogs [2]; Day 25, greater than pre-study values, 4 dogs per group) was “three of four”. For the same compound, the “Urine protein concentration, highest value (up to)” value (laboratory beagle dogs [2]; Day 25, semi-quantitatively by urine dipstick) was ≥ 1,000 mg/dL, the “Urine glucose (up to)” value (laboratory beagle dogs [2]; Day 25, semi-quantitatively by urine dipstick, individuals of both sexes) was “up to 250 mg/dL” and the “Urine pH (up to)” value (laboratory beagle dogs [2]; Day 25, Group 2 males and both sexes in Group 3) was no less than 9.0 pH. For the same compound, the “Activated partial thromboplastin time (APTT) prolonged, times pretreatment (up to)” value (laboratory beagle dogs [2]; Days 6, 11, 15, 22, and/or 25, individual dogs, within normal reference range) was “up to 1.21 x”, the “Serum phosphorus concentrations, times pre-study (as low as)” value (laboratory beagle dogs [2]; Days 7 and 20, both sexes in all groups) was no less than 0.74 x and the “Cholesterol concentrations, times pre-study (up to)” value (laboratory beagle dogs [2]; Days 7 and 20, both sexes in Group 2 and males in Group 3) was “up to 1.50 x”. For the same compound, the “Group mean APTT versus dogs given trametinib alone” value (laboratory beagle dogs [2]; at 11 days and thereafter, p < 0.05) was “significantly different”, the “Prothrombin time (PT) assays” value (laboratory beagle dogs [2]; compared to pretreatment samples) was “No analogous effect” and the “Blood neutrophils, times individual pre-study values” (laboratory beagle dogs [2]; one male (23002) and one female (23501), Group 2, days 20 and 25, up to) was “up to 1.95 x”. The “Individual animal fibrinogen concentration, times pretreatment (up to)” value (laboratory beagle dogs [2]; various time points, most pronounced in Group 3) was “up to 2.61 x”.
